# Data from PubChem BioAssay AID2060902 (Molecular Pharmacology Branch, DTP, NCI, 2025).
# System: 485368-065-R3-J5-PDC spheroids with HUVEC/MSC, viability
# Assay: Anticancer human tumor 485368-065-R3-J5-PDC patient-derived pancreatic carcinoma cell line growth inhibition [RAS]
# Details: for IC50: curve of first compound; for viability, T/C: stronger effect = lower value
# In short: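 Tumour cells grown as complex spheroids with HUVEC endothelial cells and mesenchymal stem cells, treated with RAS pathway inhibitor combinations. Each agent spans half-log steps from near clinical Cmax, or 10 microM where Cmax is unknown.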
# 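Also: spheroids exposed to agents for seven days before readout.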
smiles,measurement,setting,value
CCc1c2c(nc3ccc(O)cc13)-c1cc3c(c(=O)n1C2)COC(=O)[C@]3(O)CC + CCn1c(-c2cccnc2C(C)OC)c2c3cc(ccc31)N1CCOC(CC(NC(=O)C(C(C)C)N(C)C(=O)C3(F)CCN(C(=O)C#CC(C)(C)N(C)C)CC3)C(=O)N3CCCC(N3)C(=O)OCC(C)(C)C2)C1,IC50,second compound 0.000949 µM,2.21 nM
same,IC50,second compound 0.003 µM,2.28 nM
same,IC50,second compound 0.00949 µM,2.14 nM
same,IC50,second compound 0.03 µM,2.27 nM
same,IC50,second compound 0.0949 µM,2.05 nM
same,IC50,second compound 0.3 µM,2.01 nM
same,"viability, T/C","second compound 0.000949 µM, first compound 0.000949 µM",84.3%
same,"viability, T/C","second compound 0.000949 µM, first compound 0.003 µM",36.9%
same,"viability, T/C","second compound 0.000949 µM, first compound 0.00949 µM",17%
same,"viability, T/C","second compound 0.000949 µM, first compound 0.03 µM",7.78%
same,"viability, T/C","second compound 0.000949 µM, first compound 0.0949 µM",3.95%
same,"viability, T/C","second compound 0.000949 µM, first compound 0.3 µM",3.3%
same,"viability, T/C","second compound 0.003 µM, first compound 0.000949 µM",84.1%
same,"viability, T/C","second compound 0.003 µM, first compound 0.003 µM",39.3%
same,"viability, T/C","second compound 0.003 µM, first compound 0.00949 µM",15.1%
same,"viability, T/C","second compound 0.003 µM, first compound 0.03 µM",6.58%
same,"viability, T/C","second compound 0.003 µM, first compound 0.0949 µM",5.33%
same,"viability, T/C","second compound 0.003 µM, first compound 0.3 µM",2.88%
same,"viability, T/C","second compound 0.00949 µM, first compound 0.000949 µM",76.9%
same,"viability, T/C","second compound 0.00949 µM, first compound 0.003 µM",39.2%
same,"viability, T/C","second compound 0.00949 µM, first compound 0.00949 µM",14.8%
same,"viability, T/C","second compound 0.00949 µM, first compound 0.03 µM",8.64%
same,"viability, T/C","second compound 0.00949 µM, first compound 0.0949 µM",4.69%
same,"viability, T/C","second compound 0.00949 µM, first compound 0.3 µM",3.02%
same,"viability, T/C","second compound 0.03 µM, first compound 0.000949 µM",88.8%
same,"viability, T/C","second compound 0.03 µM, first compound 0.003 µM",37.2%
same,"viability, T/C","second compound 0.03 µM, first compound 0.00949 µM",15.9%
same,"viability, T/C","second compound 0.03 µM, first compound 0.03 µM",8.19%
same,"viability, T/C","second compound 0.03 µM, first compound 0.0949 µM",3.98%
same,"viability, T/C","second compound 0.03 µM, first compound 0.3 µM",2.16%
same,"viability, T/C","second compound 0.0949 µM, first compound 0.000949 µM",88.1%
same,"viability, T/C","second compound 0.0949 µM, first compound 0.003 µM",29.7%
same,"viability, T/C","second compound 0.0949 µM, first compound 0.00949 µM",14.8%
same,"viability, T/C","second compound 0.0949 µM, first compound 0.03 µM",6.96%
same,"viability, T/C","second compound 0.0949 µM, first compound 0.0949 µM",4.68%
same,"viability, T/C","second compound 0.0949 µM, first compound 0.3 µM",2.71%
same,"viability, T/C","second compound 0.3 µM, first compound 0.000949 µM",82.5%
same,"viability, T/C","second compound 0.3 µM, first compound 0.003 µM",32.2%
same,"viability, T/C","second compound 0.3 µM, first compound 0.00949 µM",12.6%
same,"viability, T/C","second compound 0.3 µM, first compound 0.03 µM",9.2%
same,"viability, T/C","second compound 0.3 µM, first compound 0.0949 µM",5.3%
same,"viability, T/C","second compound 0.3 µM, first compound 0.3 µM",2.3%
